In PubChem BioAssay (NCI) one finds TGI data, which are given here for 20 molecules.

Among the test systems are HCC-2998 colon; HOP-92 NSCLC; K-562 leukemia; MALME-3M melanoma; OVCAR-8 ovarian; SF-268 CNS; SK-MEL-2 melanoma.
Assay in all cases: NCI-60 cell line screen, 48 h

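Grown in 96-well plates, cells were treated for 48 hours with each compound at five concentrations. Insufficient inhibition: endpoint recorded as highest concentration tested. TGI marks complete inhibition of growth.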

Turning to `CC1=N[C@](C)(C2CC3C=CC2C3=O)COC1=O` (stereo partly drawn), the TGI with HCC-2998 colon, in the test on HOP-92 NSCLC, with K-562 leukemia, in the test with MALME-3M melanoma, in the test on OVCAR-8 ovarian and in the test on SF-268 CNS was more than 100 µM throughout.
Regarding `Cc1n[nH]c(=O)n1/N=C\CC/C=N\n1c(C)n[nH]c1=O`, the TGI in the test with HCC-2998 colon, in the test with HOP-92 NSCLC, in the test with K-562 leukemia, in the test with MALME-3M melanoma, with OVCAR-8 ovarian and in the test with SF-268 CNS was more than 100 µM each time. In addition, the TGI in the test on SK-MEL-2 melanoma is more than 100 µM.
Regarding `COC(=O)C1=C(CCCCO[Si](C)(C)C(C)(C)C)NC(=O)N2[C@@H](CCOCc3ccccc3)CC[C@H]12`, the TGI with HCC-2998 colon is 78.9 µM; with HOP-92 NSCLC it was 34.4 µM; with K-562 leukemia it was more than 100 µM; in the test with MALME-3M melanoma, 47.3 µM; in the test with SF-268 CNS it was more than 100 µM; with SK-MEL-2 melanoma, 35.8 µM.
For the molecule `O=C1/C(=C/c2c(Cl)[nH]c3ccccc23)c2ccccc2N1c1ccccc1`, the TGI in the test on HCC-2998 colon is 20.7 µM; with HOP-92 NSCLC, 31.8 µM; in the test with K-562 leukemia, more than 100 µM; with MALME-3M melanoma, 18.6 µM; in the test with OVCAR-8 ovarian it was 20.4 µM; in the test with SF-268 CNS, 33.2 µM. In the test with SK-MEL-2 melanoma, this molecule returned a TGI of 9.57 µM.
For `c1ccc2cc(CNCCOCCOCCNCc3ccc4ccccc4c3)ccc2c1`, the TGI in the test on HCC-2998 colon is 0.54 µM; in the test on HOP-92 NSCLC it was 3.14 µM; with K-562 leukemia, 2.79 µM; with MALME-3M melanoma, 3.9 µM; with OVCAR-8 ovarian, 3.77 µM; with SF-268 CNS, 4.43 µM. Further, in the test with SK-MEL-2 melanoma, the TGI is 3.65 µM.
With `N#Cc1[nH]c(=O)n(-c2cccc3ccccc23)c1N`, the TGI in the test on HCC-2998 colon, with K-562 leukemia, in the test on MALME-3M melanoma, in the test with OVCAR-8 ovarian, with SF-268 CNS and in the test on SK-MEL-2 melanoma was more than 10 µM each time.
Turning to `C/C(CC1SCCCS1)=C(/C)CC1SCCCS1`, the TGI in the test with HCC-2998 colon, in the test on K-562 leukemia, in the test with MALME-3M melanoma, in the test on OVCAR-8 ovarian, in the test on SF-268 CNS and with SK-MEL-2 melanoma was more than 100 µM each time.
Take `O=C(/C=C/c1ccc(Cl)cc1)c1cccs1`: the TGI was 37.5 µM with HCC-2998 colon; more than 100 µM with K-562 leukemia; 36.7 µM with MALME-3M melanoma; 56.2 µM with OVCAR-8 ovarian; 75.9 µM in the test with SF-268 CNS; more than 100 µM with SK-MEL-2 melanoma.
Turning to `O=C(CNC(=O)OCc1ccccc1)NCCCCC(NC(=O)OCc1ccccc1)C(=O)NC(CCCCNC(=O)CNC(=O)OCc1ccccc1)C(=O)OCc1ccccc1` (stereo not drawn), the TGI in the test with HCC-2998 colon, in the test with K-562 leukemia, with MALME-3M melanoma, in the test on OVCAR-8 ovarian, in the test on SF-268 CNS and with SK-MEL-2 melanoma was more than 62.5 µM each time.
On to `CC(C)(C)OC(=O)N(CCNS(=O)(=O)c1cccc2cnccc12)CCC(=O)ON1C(=O)CCC1=O`, for which the TGI in the test on HOP-92 NSCLC, in the test with K-562 leukemia, in the test with MALME-3M melanoma, in the test with OVCAR-8 ovarian, in the test on SF-268 CNS and in the test on SK-MEL-2 melanoma was more than 100 µM in each case.
As for `CC(C)CC(NC(=O)C(CCI)Cc1ccccc1)C(=O)Nc1ccccc1` (stereo not drawn), the TGI in the test on HCC-2998 colon, in the test on HOP-92 NSCLC, in the test on K-562 leukemia, in the test with MALME-3M melanoma, with OVCAR-8 ovarian and in the test with SK-MEL-2 melanoma was more than 100 µM in each case.
Take `C=CCCCC1CCCNC1=S` (stereo not drawn): the TGI in the test with HCC-2998 colon, with HOP-92 NSCLC, in the test with K-562 leukemia, in the test on OVCAR-8 ovarian, with SF-268 CNS and in the test with SK-MEL-2 melanoma was more than 100 µM in each case.
`O=C(Cc1ccccc1)NNc1nc(NNC(=O)c2ccncc2)nc(Nc2cccc(Cl)c2)n1`: the TGI with HCC-2998 colon, in the test on HOP-92 NSCLC, with K-562 leukemia, with MALME-3M melanoma, in the test on OVCAR-8 ovarian and with SF-268 CNS was more than 10 µM throughout.
As to `O=c1c2cn[nH]c2nc2scc(-c3ccc(Cl)cc3)n12`, the TGI in the test on HCC-2998 colon, with K-562 leukemia, in the test on MALME-3M melanoma, in the test on OVCAR-8 ovarian, with SF-268 CNS and with SK-MEL-2 melanoma was more than 100 µM each time.
On to `CC12c3c4cc(Br)cc3Oc3cc(Br)cc(c31)Oc1cc(Br)cc(c12)O4`, for which the TGI with HCC-2998 colon was more than 100 µM; with K-562 leukemia, more than 100 µM; in the test on MALME-3M melanoma, 37.5 µM; with OVCAR-8 ovarian, more than 100 µM; with SF-268 CNS it was 28.2 µM; with SK-MEL-2 melanoma, 67.8 µM.
Take `CCOC(=O)C1(C/C=C\CBr)CCCCCCCCCCC1=O` (stereo not drawn): the TGI in the test on HCC-2998 colon was determined as 30.2 µM; in the test on K-562 leukemia, 20.2 µM; in the test with MALME-3M melanoma it was 19.1 µM; in the test with OVCAR-8 ovarian it was 31.4 µM; in the test on SF-268 CNS, 27.6 µM; in the test with SK-MEL-2 melanoma, 36.5 µM.
On to `COc1cc2c(cc1OC)C(C)N(C)c1c-2c(OC(C)=O)cc2cc(OC)c(OC)cc12` (stereo not drawn), for which the TGI with HCC-2998 colon was more than 60.1 µM; in the test with K-562 leukemia it was more than 100 µM; with MALME-3M melanoma, 14.8 µM; with OVCAR-8 ovarian, 33.2 µM; with SF-268 CNS it was more than 100 µM; with SK-MEL-2 melanoma, 30.2 µM.
Regarding `C/C(=N\NC(=S)NC(C)(C)C)c1ccccn1`, the TGI in the test with HCC-2998 colon is more than 100 µM; in the test with HOP-92 NSCLC, 9.47 µM; in the test on MALME-3M melanoma, more than 79.5 µM; in the test on OVCAR-8 ovarian, more than 36.6 µM; in the test with SF-268 CNS, more than 87.8 µM; with SK-MEL-2 melanoma it was more than 100 µM.
With `CCCCOCCOC1=CC(=O)c2c(O)ccc(O)c2C1=O`, the TGI in the test with HCC-2998 colon was 3.3 µM; in the test on HOP-92 NSCLC, 4.44 µM; in the test with K-562 leukemia it was more than 10 µM; with MALME-3M melanoma, 0.738 µM; in the test on SF-268 CNS, 3.65 µM; with SK-MEL-2 melanoma, 3.26 µM.
Take `COC(=O)C1CCC(=O)N1C(c1ccccc1)c1cc(OC)c(OC)c(OC)c1` (stereo not drawn): the TGI was more than 100 µM with HCC-2998 colon; more than 100 µM in the test on HOP-92 NSCLC; 49.9 µM in the test with K-562 leukemia; more than 100 µM in the test on MALME-3M melanoma; more than 100 µM in the test with OVCAR-8 ovarian; more than 100 µM with SF-268 CNS.
